Measurements taken from the supplement of paper PMC10307832.

Compound: NCC(=O)Nc1ccc(-n2nc(C(F)(F)F)cc2-c2ccc3c(ccc4ccccc43)c2)cc1 + CC1(C)CCC(c2ccc(Cl)cc2)=C(CN2CCN(c3ccc(C(=O)NS(=O)(=O)c4ccc(N[C@H](CCN5CCOCC5)CSc5ccccc5)c(S(=O)(=O)C(F)(F)F)c4)cc3)CC2)C1 [Navitoclax] (partner 0.5 µM)
Assay: relative viability (nuclei count vs DMSO), 5 days (fraction); higher = more cells survive
Settings: first compound 0.02 µM
In short: (§1)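 Nuclei were stained with Hoechst during a one-step fixation (final 0.05% Triton X-100, 1% formaldehyde, 1 ug/ml Hoechst) carried out 5 days after dosing, then counted on 4× images. The cells, lung cancer lines in 1536-well plates, had been dosed by pin tool the day after seeding with one drug alone or a fixed anchor-drug dose plus five library-drug doses (not always all listed) in √10 steps. Relative viability is the nuclei count in treated wells divided by that in vehicle wells, and each value is the median of duplicate plates.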

| Cell Line | relative viability |
| --- | --- |
| HCC-78 | 0.854 |
| NCI-H322M | 1.18 |
| LCLC-97TM1 | 0.321 |
| NCI-H2009 | 1.12 |
| A-427 | 0.798 |
| NCI-H441 | 0.521 |
| NCI-H1734 | 0.889 |
| NCI-H460 | 1.17 |
| NCI-H2347 | 0.771 |
| SK-LU-1 | 0.852 |
| NCI-H1395 | 1.12 |
| 201T | 1.26 |
| NCI-H1915 | 0.771 |
| HCC-827 | 0.992 |
| LXF-289 | 0.918 |
| NCI-H23 | 0.821 |

Same assay, conditions: first compound 0.06325 µM

| Cell Line | relative viability |
| --- | --- |
| HCC-78 | 0.868 |
| NCI-H322M | 1.18 |
| LCLC-97TM1 | 0.422 |
| NCI-H2009 | 1.15 |
| A-427 | 0.956 |
| NCI-H441 | 0.577 |
| NCI-H1734 | 0.868 |
| NCI-H460 | 1.11 |
| NCI-H2347 | 0.878 |
| SK-LU-1 | 0.784 |
| NCI-H1395 | 1.16 |
| 201T | 1.18 |
| NCI-H1915 | 0.804 |
| HCC-827 | 1.04 |
| LXF-289 | 0.977 |
| NCI-H23 | 0.847 |

Same assay, conditions: first compound 0.2 µM

| Cell Line | relative viability |
| --- | --- |
| HCC-78 | 0.729 |
| NCI-H322M | 1.34 |
| NCI-H2009 | 1.27 |
| A-427 | 0.972 |
| NCI-H441 | 0.654 |
| NCI-H1734 | 0.91 |
| NCI-H460 | 1.13 |
| NCI-H2347 | 1 |
| SK-LU-1 | 1.27 |
| NCI-H1395 | 1.16 |
| 201T | 1.24 |
| NCI-H1915 | 0.812 |
| HCC-827 | 1.06 |
| LXF-289 | 0.943 |
| NCI-H23 | 0.801 |

Same assay, conditions: first compound 0.6325 µM

| Cell Line | relative viability |
| --- | --- |
| HCC-78 | 0.715 |
| NCI-H322M | 1.18 |
| LCLC-97TM1 | 0.359 |
| NCI-H2009 | 1.11 |
| A-427 | 0.95 |
| NCI-H441 | 0.627 |
| NCI-H1734 | 0.787 |
| NCI-H460 | 1.07 |
| NCI-H2347 | 0.906 |
| SK-LU-1 | 0.909 |
| NCI-H1395 | 1.11 |
| 201T | 1.25 |
| NCI-H1915 | 0.767 |
| HCC-827 | 1.06 |
| LXF-289 | 0.954 |
| NCI-H23 | 0.903 |

Same assay, conditions: first compound 2 µM

| Cell Line | relative viability |
| --- | --- |
| HCC-78 | 0.908 |
| NCI-H322M | 1.1 |
| LCLC-97TM1 | 0.393 |
| NCI-H2009 | 1.13 |
| A-427 | 0.959 |
| NCI-H441 | 0.539 |
| NCI-H1734 | 0.787 |
| NCI-H460 | 1.06 |
| NCI-H2347 | 0.833 |
| SK-LU-1 | 0.878 |
| NCI-H1395 | 1.22 |
| 201T | 1.22 |
| NCI-H1915 | 0.803 |
| HCC-827 | 1.01 |
| LXF-289 | 0.861 |
| NCI-H23 | 0.855 |

Compound: C1CSC2=C(C(=O)N1)SC3=C2C=C(C=C3)O [kb NB 142-70] + CC1(C)CCC(c2ccc(Cl)cc2)=C(CN2CCN(c3ccc(C(=O)NS(=O)(=O)c4ccc(N[C@H](CCN5CCOCC5)CSc5ccccc5)c(S(=O)(=O)C(F)(F)F)c4)cc3)CC2)C1 [Navitoclax] (partner 0.5 µM)
Assay: as above
Settings: first compound 0.1 µM
In short: as §1

| Cell Line | relative viability |
| --- | --- |
| HCC-78 | 0.752 |
| NCI-H322M | 1.2 |
| LCLC-97TM1 | 0.457 |
| NCI-H2009 | 1.13 |
| A-427 | 1.03 |
| NCI-H441 | 0.683 |
| NCI-H1734 | 0.794 |
| NCI-H460 | 0.978 |
| NCI-H2347 | 0.867 |
| SK-LU-1 | 0.747 |
| NCI-H1395 | 1.26 |
| 201T | 1.22 |
| NCI-H1915 | 0.793 |
| HCC-827 | 1.04 |
| LXF-289 | 0.938 |
| NCI-H23 | 0.775 |

Same assay, conditions: first compound 1 µM

| Cell Line | relative viability |
| --- | --- |
| HCC-78 | 0.742 |
| NCI-H322M | 1.15 |
| LCLC-97TM1 | 0.29 |
| NCI-H2009 | 1.22 |
| A-427 | 1.07 |
| NCI-H441 | 0.369 |
| NCI-H1734 | 0.706 |
| NCI-H460 | 1.25 |
| NCI-H2347 | 0.77 |
| SK-LU-1 | 0.642 |
| NCI-H1395 | 1.23 |
| 201T | 1.26 |
| NCI-H1915 | 0.739 |
| HCC-827 | 1.02 |
| LXF-289 | 0.986 |
| NCI-H23 | 0.735 |

Same assay, conditions: first compound 3.162 µM

| Cell Line | relative viability |
| --- | --- |
| HCC-78 | 0.652 |
| NCI-H322M | 1.11 |
| LCLC-97TM1 | 0.307 |
| NCI-H2009 | 0.889 |
| A-427 | 0.962 |
| NCI-H441 | 0.34 |
| NCI-H1734 | 0.431 |
| NCI-H460 | 0.305 |
| NCI-H2347 | 0.608 |
| SK-LU-1 | 0.178 |
| NCI-H1395 | 0.826 |
| 201T | 1.17 |
| NCI-H1915 | 0.519 |
| HCC-827 | 1.02 |
| LXF-289 | 0.942 |
| NCI-H23 | 0.331 |

Compound: NCC(=O)Nc1ccc(-n2nc(C(F)(F)F)cc2-c2ccc3c(ccc4ccccc43)c2)cc1 + Cc1nc(NC(=O)N2CCC[C@H]2C(N)=O)sc1-c1ccnc(C(C)(C)C(F)(F)F)c1 [Alpelisib] (partner 2 µM)
Assay: as above
Settings: first compound 0.02 µM
In short: as §1

| Cell Line | relative viability |
| --- | --- |
| HCC-78 | 0.361 |
| NCI-H322M | 0.756 |
| LCLC-97TM1 | 0.206 |
| NCI-H2009 | 1.21 |
| A-427 | 1.05 |
| NCI-H441 | 0.906 |
| NCI-H1734 | 0.748 |
| NCI-H460 | 0.576 |
| NCI-H2347 | 1.04 |
| SK-LU-1 | 0.913 |
| NCI-H1395 | 1.04 |
| 201T | 1.08 |
| NCI-H1915 | 1.08 |
| HCC-827 | 1.02 |
| LXF-289 | 1.08 |
| NCI-H23 | 0.59 |
